Tests used:
[1] = Detergent binding to resin, foaming of supernatant; assay type: physicochemical; design: key: foaming presence (+); absence (−); conditions: 10 mM detergent solution incubated with resin beads
[2] = Detergent binding to resin, foaming of supernatant; assay type: physicochemical; design: key: foaming presence (+); absence (−); conditions: 10 mM detergent solution incubated with resin beads; remark: listed apart in the source
[3] = Detergent binding to resin, foaming of supernatant; assay type: physicochemical; design: key: foaming presence (+); absence (−); conditions: 10 mM detergent solution incubated with resin beads; remark: listed apart in the source
viruses = conditions: even in the presence of plasma proteins; basis of copending application Ser. No. 08/785,984; cited from earlier work
EMC virus = assay: Viral end point assay of EMC-spiked plasma; assay type: cell-based

Row | Molecule | foaming of supernatant as indicator of detergent presence, Calbiosorb [1] | foaming of supernatant as indicator of detergent presence, Polystyrene [2] | foaming of supernatant as indicator of detergent presence, Purolite [3] | level effective at inactivating some viruses (viruses) | Titer (EMC virus; 100 mM triclosan in 2% aqueous Triton X-100, 5 mL added to 50 mL EMC-spiked plasma, 60 min room temperature) | virucidal effectiveness compared with Triton plus triclosan (EMC virus; 0.2% Triton alone) | hemolysis (red blood cells (RBC))
1 | C[C@H](CCC(=O)NCCC[N+](C)(C)CCCS(=O)(=O)[O-])[C@H]1CC[C@H]2[C@@H]3[C@H](O)C[C@@H]4C[C@H](O)CC[C@]4(C)[C@H]3C[C@H](O)[C@]12C [CHAPS, 3-[(3-Chloramidopropyl)-dimethylammonio]-1-propanesulfanate] | − | + |  |  |  |  | 
2 | C[C@H](CCC(=O)NCCC[N+](C)(C)CC(O)CS(=O)(=O)[O-])[C@H]1CC[C@H]2[C@@H]3[C@H](O)C[C@@H]4C[C@H](O)CC[C@]4(C)[C@H]3C[C@H](O)[C@]12C (stereo partly drawn) [CHAPSO, 3-[(3-Chloramidopropyl)-dimethylammonio]-2-hydroxyl 1-propanesulfanate] | − | + |  |  |  |  | 
3 | CCCCCCCC(=O)O [Caprylate, caprylic acid] | − | + | − |  |  |  | 
4 | C[C@H](CCC(=O)O)[C@H]1CC[C@H]2[C@@H]3[C@H](O)C[C@@H]4C[C@H](O)CC[C@]4(C)[C@H]3C[C@H](O)[C@]12C [Cholate, cholic acid] | − | + | − |  |  |  | 
5 | CCCCCCCCOC(=O)CC(C(=O)OCCCCCCCC)S(=O)(=O)O (stereo not drawn) [DSS, dioctyl sulfosuccinate] | − | + | − |  |  |  | 
6 | C[C@H](CCC(=O)O)[C@H]1CC[C@H]2[C@@H]3CC[C@@H]4C[C@H](O)CC[C@]4(C)[C@H]3C[C@H](O)[C@]12C [Deoxycholate, deoxycholic acid] | − | + | − |  |  |  | 
7 | CCCCCCCCO[C@@H]1O[C@H](CO)[C@@H](O)[C@H](O)[C@H]1O [OG, n-octyl-B-D-glucopyranoside] | − | + | + | about 0.03% |  |  | 
8 | CCCCCCCCCCCCOS(=O)(=O)[O-].[Na+] [SDS, sodium dodecylsulfate] | − | + | − |  |  |  | 
9 | CCCCCCCCCCCCCC[N+](C)(C)C.[Br-] [TTAB, tetradecyltrimethylammonium bromide] | − | + |  |  |  |  | 
10 | Oc1cc(Cl)ccc1Oc1ccc(Cl)cc1Cl [Triclosan, triclosan] |  |  |  |  | 0 |  | 
11 | Triton X-100 | − | + | + |  |  | not nearly effective as Triton plus triclosan | immediate hemolysis
12 | benzalkonium chloride [BC] | − | + |  |  |  |  | 
